Consider twelve compounds from patent US20260144788A1, “COMPOUND FOR SHP2 PROTEIN DEGRADATION AND MEDICAL USES THEREOF” (UBIX THERAPEUTICS, INC., priority 2022, published 2026).

This experiment has as its target T1, SHP2 protein (Homo sapiens, UniProt Q06124).
T1 sequence (Q06124 1-593): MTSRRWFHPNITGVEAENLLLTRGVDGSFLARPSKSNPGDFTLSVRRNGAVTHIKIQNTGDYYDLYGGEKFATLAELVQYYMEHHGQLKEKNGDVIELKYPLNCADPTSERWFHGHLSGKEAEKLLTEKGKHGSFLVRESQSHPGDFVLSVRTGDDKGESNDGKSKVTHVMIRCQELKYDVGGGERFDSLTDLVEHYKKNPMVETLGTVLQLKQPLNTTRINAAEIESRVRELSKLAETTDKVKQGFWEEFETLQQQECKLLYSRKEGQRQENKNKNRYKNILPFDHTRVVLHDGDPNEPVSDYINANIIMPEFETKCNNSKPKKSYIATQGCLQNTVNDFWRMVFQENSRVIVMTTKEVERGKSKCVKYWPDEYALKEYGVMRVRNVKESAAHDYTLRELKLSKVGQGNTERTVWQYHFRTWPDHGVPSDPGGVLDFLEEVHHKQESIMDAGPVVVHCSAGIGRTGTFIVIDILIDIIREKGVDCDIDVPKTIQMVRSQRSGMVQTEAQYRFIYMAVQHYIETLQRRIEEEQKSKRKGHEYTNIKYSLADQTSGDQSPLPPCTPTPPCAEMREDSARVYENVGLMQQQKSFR
As to the kind of experiment: Measurement of SHP2 protein degradation in NCI-H358 cells (western blotting). It counts as cell-based. To be noted: harvested after 24 hours. More on the design: endogenous in cells; host or cells: NCI-H358. The procedure, abridged:
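H358 cells in RPMI1640/25 mM HEPES/10% FBS, cultured 24 h, then exposed to compound at final 0.001, 0.01 and 0.1 μM for 24 h against a DMSO control. Lysates were normalised for protein by BCA and probed by western blot for SHP2, with GAPDH as loading control.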

The structures appear in SMILES notation.

For the compound `Cc1cn([C@H](C(=O)N2C[C@H](O)C[C@H]2C(=O)NCc2ccc(-c3scnc3C)cc2OC2CCN(C(=O)C3CCN(c4nccc(Sc5cnc(N6CCC7(CC6)CO[C@@H](C)[C@H]7N)c(CO)n5)c4Cl)CC3)CC2)C(C)C)nn1` [Example 110, (2S,4R)—N-(2-((1-(1-(4-((5-((3S,4S)-4-amino-3-methyl-2-oxa-8-azaspiro[4.5]decan-8-yl)-6-(hydroxymethyl)pyrazin-2-yl)thio)-3-chloropyridin-2-yl)piperidine-4-carbonyl)piperidin-4-yl)oxy)-4-(4-methylthiazol-5-yl)benzyl)-4-hydroxy-1-((S)-3-methyl-2-(4-methyl-1H-1,2,3-triazol-1-yl)butanoyl)pyrrolidine-2-carboxamide], the SHP2% degradation by setting is: (0.01 μM) 99.8%; (0.1 μM) 99.8%.
As for `CC(=O)N[C@H](C(=O)N1C[C@H](O)C[C@H]1C(=O)NCc1ccc(-c2scnc2C)cc1OC1CCN(C(=O)C2CCN(c3nccc(Sc4cnc(N5CCC(C)(CN)CC5)cn4)c3Cl)CC2)CC1)C1CC1` [Example 91, (2S,4R)-1-((S)-2-acetamido-2-cyclopropylacetyl)-N-(2-((1-(1-(4-((5-(4-(aminomethyl)-4-methylpiperidin-1-yl)pyrazin-2-yl)thio)-3-chloropyridin-2-yl)piperidine-4-carbonyl)piperidin-4-yl)oxy)-4-(4-methylthiazol-5-yl)benzyl)-4-hydroxypyrrolidine-2-carboxamide], the SHP2% degradation reads like this: (0.01 μM) 53.2%; (0.1 μM) 98.5%.
Take `Cc1cc(C(C(=O)N2C[C@H](O)C[C@H]2C(=O)NCc2ccc(-c3scnc3C)cc2OC2CCN(C(=O)C3CCN(c4nccc(Sc5cnc(N6CCC(C)(CN)CC6)cn5)c4Cl)CC3)CC2)C(C)C)on1` (stereo partly drawn) [Example 92, (2S,4R)—N-(2-((1-(1-(4-((5-(4-(aminomethyl)-4-methylpiperidin-1-yl)pyrazin-2-yl)thio)-3-chloropyridin-2-yl)piperidine-4-carbonyl)piperidin-4-yl)oxy)-4-(4-methylthiazol-5-yl)benzyl)-4-hydroxy-1-(3-methyl-2-(3-methylisoxazol-5-yl)butanoyl)pyrrolidine-2-carboxamide]: the SHP2% degradation was 30.1% (0.01 μM) and 80.2% (0.1 μM).
`CC(=O)N[C@H](C(=O)N1C[C@H](O)C[C@H]1C(=O)NCc1ccc(-c2scnc2C)cc1OC1CCN(C(=O)C2CCN(c3cccc(Sc4cnc(N5CCC(C)(CN)CC5)c(CO)n4)c3Cl)CC2)CC1)C(C)(C)C` [Example 83, (2S,4R)-1-((S)-2-acetamido-3,3-dimethylbutanoyl)-N-(2-((1-(1-(3-((5-(4-(aminomethyl)-4-methylpiperidin-1-yl)-6-(hydroxymethyl)pyrazin-2-yl)thio)-2-chlorophenyl)piperidine-4-carbonyl)piperidin-4-yl)oxy)-4-(4-methylthiazol-5-yl)benzyl)-4-hydroxypyrrolidine-2-carboxamide]: the SHP2% degradation is, setting by setting: (0.01 μM) 97.8%; (0.1 μM) 99.7%.
Regarding `Cc1ncsc1-c1ccc(CNC(=O)[C@@H]2C[C@@H](O)CN2C(=O)[C@@H](NC(=O)C2(F)CC2)C(C)(C)C)c(OC2CCN(C(=O)C3CCN(c4nccc(Sc5cnc(N6CCC7(CC6)CO[C@@H](C)[C@H]7N)cn5)c4Cl)CC3)CC2)c1` [Example 67, (2S,4R)—N-(2-((1-(1-(4-((5-((3S,4S)-4-amino-3-methyl-2-oxa-8-azaspiro[4.5]decan-8-yl)pyrazin-2-yl)thio)-3-chloropyridin-2-yl)piperidine-4-carbonyl)piperidin-4-yl)oxy)-4-(4-methylthiazol-5-yl)benzyl)-1-((S)-2-(1-fluorocyclopropane-1-carboxamido)-3,3-dimethylbutanoyl)-4-hydroxypyrrolidine-2-carboxamide], the SHP2% degradation by setting is: (0.01 μM) 94.5%; (0.1 μM) 96.9%.
Regarding `CC(=O)N[C@H](C(=O)N1C[C@H](O)C[C@H]1C(=O)NCc1ccc(-c2scnc2C)cc1O[C@H]1CC[C@H](C(=O)N2CCC(c3nccc(Sc4cnc(N5CCC(C)(CN)CC5)cn4)c3Cl)CC2)CC1)C(C)(C)C` [Example 47, (2S,4R)-1-((S)-2-acetamido-3,3-dimethylbutanoyl)-N-(2-(((1r,4S)-4-(4-(4-((5-(4-(aminomethyl)-4-methylpiperidin-1-yl)pyrazin-2-yl)thio)-3-chloropyridin-2-yl)piperidine-1-carbonyl)cyclohexyl)oxy)-4-(4-methylthiazol-5-yl)benzyl)-4-hydroxypyrrolidine-2-carboxamide], the SHP2% degradation is, setting by setting: (0.01 μM) −34.6%; (0.1 μM) 50.6%.
Take `Cc1cc(C(C(=O)N2C[C@H](O)C[C@H]2C(=O)NCc2ccc(-c3scnc3C)cc2OC2CCN(C(=O)C3CCN(c4nccc(Sc5cnc(N6CCC(C)(CN)CC6)c(CO)n5)c4Cl)CC3)CC2)C(C)C)on1` (stereo partly drawn) [Example 96, (2S,4R)—N-(2-((1-(1-(4-((5-(4-(aminomethyl)-4-methylpiperidin-1-yl)-6-(hydroxymethyl)pyrazin-2-yl)thio)-3-chloropyridin-2-yl)piperidine-4-carbonyl)piperidin-4-yl)oxy)-4-(4-methylthiazol-5-yl)benzyl)-4-hydroxy-1-(3-methyl-2-(3-methylisoxazol-5-yl)butanoyl)pyrrolidine-2-carboxamide]: the SHP2% degradation is 98.9% (0.01 μM) and 99.9% (0.1 μM).
As for `Cc1cc(C(C(=O)N2C[C@H](O)C[C@H]2C(=O)NCc2ccc(-c3scnc3C)cc2O[C@H]2CC[C@H](C(=O)N3CC(Nc4cccc(Sc5cnc(N6CCC(C)(CN)CC6)cn5)c4Cl)C3)CC2)C(C)C)on1` (stereo partly drawn) [Example 114, (2S,4R)—N-(2-(((1R,4S)-4-(3-((3-((5-(4-(aminomethyl)-4-methylpiperidin-1-yl)pyrazin-2-yl)thio)-2-chlorophenyl)amino)azetidine-1-carbonyl)cyclohexyl)oxy)-4-(4-methylthiazol-5-yl)benzyl)-4-hydroxy-1-(3-methyl-2-(3-methylisoxazol-5-yl)butanoyl)pyrrolidine-2-carboxamide], the SHP2% degradation is, setting by setting: (0.01 μM) 48.3%; (0.1 μM) 88.1%.
As for `CC(=O)N[C@H](C(=O)N1C[C@H](O)C[C@H]1C(=O)NCc1ccc(-c2scnc2C)cc1O[C@H]1CC[C@H](C(=O)N2CC(Nc3nccc(Sc4cnc(N5CCC(C)(CN)CC5)c(CO)n4)c3Cl)C2)CC1)C(C)(C)C` [Example 44, (2S,4R)-1-((S)-2-acetamido-3,3-dimethylbutanoyl)-N-(2-(((1r,4S)-4-(3-((4-((5-(4-(aminomethyl)-4-methylpiperidin-1-yl)-6-(hydroxymethyl)pyrazin-2-yl)thio)-3-chloropyridin-2-yl)amino)azetidine-1-carbonyl)cyclohexyl)oxy)-4-(4-methylthiazol-5-yl)benzyl)-4-hydroxypyrrolidine-2-carboxamide], the SHP2% degradation came to 88.5% (0.01 μM) and 99.1% (0.1 μM).
Take `Cc1ncsc1-c1ccc(CNC(=O)[C@@H]2C[C@@H](O)CN2C(=O)[C@@H](NC(=O)C2(F)CC2)C(C)(C)C)c(O[C@H]2CC[C@H](C(=O)N3CC(Nc4nccc(Sc5cnc(N6CCC7(CC6)CO[C@@H](C)[C@H]7N)cn5)c4Cl)C3)CC2)c1` [Example 22, (2S,4R)—N-(2-(((1R,4S)-4-(3-((4-((5-((3S,4S)-4-amino-3-methyl-2-oxa-8-azaspiro[4.5]decan-8-yl)pyrazin-2-yl)thio)-3-chloropyridin-2-yl)amino)azetidine-1-carbonyl)cyclohexyl)oxy)-4-(4-methylthiazol-5-yl)benzyl)-1-((S)-2-(1-fluorocyclopropane-1-carboxamido)-3,3-dimethylbutanoyl)-4-hydroxypyrrolidine-2-carboxamide]: the SHP2% degradation (0.01 μM) came to 95.7% and the SHP2% degradation (0.1 μM) came out at 97.1%.
As for `Cc1ncsc1-c1ccc(CNC(=O)[C@@H]2C[C@@H](O)CN2C(=O)[C@H](C(C)C)n2cc(C3CC3)nn2)c(OC2CCN(C(=O)C3CCN(c4nccc(Sc5cnc(N6CCC(C)(N)CC6)c(CO)n5)c4Cl)CC3)CC2)c1` [Example 105, (2S,4R)—N-(2-((1-(1-(4-((5-(4-amino-4-methylpiperidin-1-yl)-6-(hydroxymethyl)pyrazin-2-yl)thio)-3-chloropyridin-2-yl)piperidine-4-carbonyl)piperidin-4-yl)oxy)-4-(4-methylthiazol-5-yl)benzyl)-1-((S)-2-(4-cyclopropyl-1H-1,2,3-triazol-1-yl)-3-methylbutanoyl)-4-hydroxypyrrolidine-2-carboxamide], the SHP2% degradation amounted to 98.4% (0.01 μM) and 97.9% (0.1 μM).
In the case of `CC(=O)N[C@H](C(=O)N1C[C@H](O)C[C@H]1C(=O)NCc1ccc(-c2scnc2C)cc1OC1CCN(C(=O)C2CCN(c3nccc(Sc4cnc(N5CCC(C)(CN)CC5)cn4)c3Cl)CC2)CC1)C(C)C` [Example 90, (2S,4R)-1-(acetyl-L-valyl)-N-(2-((1-(1-(4-((5-(4-(aminomethyl)-4-methylpiperidin-1-yl)pyrazin-2-yl)thio)-3-chloropyridin-2-yl)piperidine-4-carbonyl)piperidin-4-yl)oxy)-4-(4-methylthiazol-5-yl)benzyl)-4-hydroxypyrrolidine-2-carboxamide], the SHP2% degradation (0.01 μM) worked out at 70.5% and the SHP2% degradation (0.1 μM) was found to be 99.2%.
